From paper PMC3743924 (The Biochemical journal, 2013) come the findings set out here.

In experiment [1] the target is T1, APH(3')-Ia (Escherichia coli, UniProt P00551). The conditions noted are these: Ca2+ complex; nucleotide site.
In experiment [2] the target is T1, APH(3')-Ia. Kind of experiment: X-ray crystal structure, […]-2.[…] A. It is filed as binding. As to conditions: ternary complex with kanamycin; ATP site; pH 4.5.
Experiment [3] deals with T1, APH(3')-Ia. Put plainly: activity assay with kanamycin. Format: biochemical. The conditions noted are these: co-substrate kanamycin; constants unpublished.

T1 sequence (P00551 whole entry): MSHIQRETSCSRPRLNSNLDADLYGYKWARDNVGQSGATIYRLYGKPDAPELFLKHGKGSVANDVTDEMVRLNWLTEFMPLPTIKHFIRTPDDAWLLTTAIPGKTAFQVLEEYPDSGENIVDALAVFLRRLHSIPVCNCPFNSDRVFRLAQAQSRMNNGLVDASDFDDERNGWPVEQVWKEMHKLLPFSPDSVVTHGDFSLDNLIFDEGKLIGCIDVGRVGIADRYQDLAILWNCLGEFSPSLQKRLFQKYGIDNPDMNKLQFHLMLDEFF

Turning to `Nc1ncnc2c1ncn2[C@@H]1O[C@H](COP(=O)(O)OP(=O)(O)OP(=O)(O)O)[C@@H](O)[C@H]1O` [ATP], the “X-ray crystal structure, 2.3-2.4 A” value on APH(3')-Ia [1] is reported as “unambiguous additional density corresponding to the ATP molecule”.
As for `COc1cc2ncnc(Nc3cccc(Cl)c3)c2cc1OC` [Tyrphostin AG 1478, N-(3-chlorophenyl)-6,7-dimethoxyquinazolin-4-amine], the “X-ray crystal structure, 2.69-2.71 A” value at APH(3')-Ia [2] is listed as “the inhibitor molecule was held in the NTP binding site through hydrophobic interactions”.
With `Nc1nc2c(ncn2[C@@H]2O[C@H](COP(=O)(O)OP(=O)(O)OP(=O)(O)O)[C@@H](O)[C@H]2O)c(=O)[nH]1` [GTP], the “activity assay with kanamycin” value on APH(3')-Ia [3] is “indicating GTP is a superior substrate”.
